The results in this text go back to paper PMC5867624, “Molecular Characterization of a Novel N-Acetylneuraminate Lyase from a Deep-Sea Symbiotic Mycoplasma” (Marine Drugs, 2018).

In data set [1] the target is T1, MyNal (Mycoplasma sp., UniProt A0A2P1G7E2). The data set is described as follows: LDH/NADH coupled spectrophotometric assay, […] nm, cleavage. Details: gene nanA; full-length gene (885 bp) in pET-32a(+), fusion tags kept, about 52 kDa, E. coli BL21(DE3), Ni-NTA. It counts as biochemical. The settings on record: cleavage direction; 20 mM phosphate pH 7.0; optimal temperature and pH (optimum 70 °C).

Another data set deals with CC(=O)C(=O)O. The data set is described as follows: purified protein. To be noted: synthesis direction, 20 mM ManNAc fixed, 20 mM phosphate pH 7.0, optimal temperature (65 °C).
The target of data set [2] is T1, MyNal. The data set is described as follows: HPLC of Neu5Ac formed, synthesis. More on the design: gene nanA. To be noted: synthesis direction; 20 mM pyruvate fixed; 20 mM phosphate pH 7.0; optimal temperature (65 °C).

T1 sequence (A0A2P1G7E2 1-294): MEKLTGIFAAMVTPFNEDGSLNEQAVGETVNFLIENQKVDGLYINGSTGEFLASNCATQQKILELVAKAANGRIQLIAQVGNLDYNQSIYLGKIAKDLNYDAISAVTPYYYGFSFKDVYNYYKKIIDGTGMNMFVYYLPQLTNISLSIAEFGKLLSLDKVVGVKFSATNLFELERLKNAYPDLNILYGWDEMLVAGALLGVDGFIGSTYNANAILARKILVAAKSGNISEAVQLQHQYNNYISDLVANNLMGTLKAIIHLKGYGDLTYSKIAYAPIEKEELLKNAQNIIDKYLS

Usually Km stands for the concentration of substrate that gives half-maximal velocity. In the case of `CC(=O)N[C@H]1[C@H]([C@H](O)[C@H](O)CO)OC(O)(C(=O)O)C[C@@H]1O` (stereo partly drawn) [Neu5Ac], the Km at MyNal [1] was 1.8 ± 0.2 mM. In the case of MyNal (Mycoplasma sp.), the Km in the data set on CC(=O)C(=O)O is listed as 5.9 ± 0.9 mM. Turning to `CC(=O)N[C@@H]1C(O)O[C@H](CO)[C@@H](O)[C@@H]1O` (stereo partly drawn) [ManNAc], the Km on MyNal [2] was determined as 6.9 ± 0.5 mM.
